This data set is described as follows: In vitro skin permeation study, Franz diffusion cell, with or without ultrasound (sonophoresis). It counts as in vitro ADME, human. Particulars: for UT60°/Non-UTGel 1 (permeation enhancement factor): Study 2, Gel 1 with 60° sonophoresis vs Gel 1 passive; for UT15°/Non-UTGel 1 (permeation enhancement factor) / UT90°/Non-UTGel 1 (permeation enhancement factor): Study 3; for UT15°/Non-UTGel 1 (permeation enhancement factor): Gel 1 with 15° sonophoresis vs Gel 1 passive; for UT90°/Non-UTGel 1 (permeation enhancement factor): Gel 1 with 90° sonophoresis vs Gel 1 passive. An excerpt: The experimental setup to run sonophoresis (ultrasound) studies with Franz cell diffusion cells consisted of a custom-built universal generator capable of driving ultrasonic transducers in the 20 kHz-2 MHz range with electronic power up to 60 W (Voltage+/−30V, Current: 2A, duty cycle 50%) with a square waveform. The real power delivered to the transducer depended on the specific experimental conditions and is specified for each experiment. The driving waveform was delivered to the transducer through a coaxial cable having a BNC connector at one end and a custom non-coaxial connector at the transducer end.
The tranducer was piezoelectric and had either a disk shaped form (either 20 or 25 mm in diameter) or a rectangular shape 10×20 mm^2). The thickness of the transducer depended on its fundamantal frequency being inversely proportional with it. In order to prevent the liquid or the gel from perturbing the electrical connection, each transducer was encapsulated in a plastic case leaving only one side of the transducer exposed to the topical composition. The case was made out of a rigid plastic and the transducers were sealed with silicone adhesive to enable them to oscilalte more or less freely. The case also enabled the electrical connections to be isolated from the topical composition.
For sonophoresis experiments where the ultrasonic wave energy was delivered perpendicular to the skin, disk-shaped transducers were used in the encapsulation setup described above. For the angled ultrasound application the case encapsulating the ultrasonic transducer was assembled in a hinged configuration, enabling angles between 15 and 90 degrees (perpendicular). Note: an angle of 0 degrees would send the ultrasonic wave parallel with the skin surface.
In vitro skin permeation studies on 5% Ibuprofen gel compositions without ultrasound (passive diffusion), or facilitated by the application of ultrasound (sonophoresis), through human cadaver skin were performed as follows:
A skin penetration study evaluated the penetration of ibuprofen through the human skin for the inventive sample prepared as disclosed in Example 1. A commercial ibuprofen gel product, IBULEVE Ibuprofen Gel (by DDD ltd, Watford, Herts, WD18 7JJ, UK) was used as a benchmark, which contains 5% W/W ibuprofen, also IMS (Industrial Methylated Spirits), carbomer, propylene glycol, diethylamine and purified water according to the product label on its package. A well-known Franz diffusion cell method (taught in US20020006418 A1 which is hereby incorporated by reference) was used. […] A magnetic stirrer bar was added in the […]. The liquid receptor was filled with Phosphate-buffered saline (PBS) solution. Air bubbles in the […] were removed. The system was thermostated at 37° C. above a magnetic stirrer to ensure the homogeneity of the liquid receptor during the experiment. A human cadaver skin sample from a commercial tissue bank (Ohio Valley Tissue and Skin Center, Cincinnati, Ohio, dermatomed to approximately 0.4 mm) was cut to fit the glass diffusion cell and the skin was mounted on the Franz cell.
For the diffusion cells designated to be tested for passive diffusion, a test gel sample of 0.2 ml was applied on the skin surface. For the diffusion cells designated to test for sonophoresis, additional test sample (2-5 ml) was added in order to assure the entire, or at least a large portion, of the ultrasonic transducer tip was immersed by the test gel during the ultrasound treatment. The excess gel was promptly removed from the donor cell after the ultrasound treatment so that the remaining test gel was approximately 0.2 ml.
Ultrasound treatments were carried out with the following test conditions: • a) Conventional ultrasound treatment with 90 degree angle (°) between the ultrasound direction and the skin surface; • b) Angled Ultrasound treatment with less than 90 degree angle between the ultrasound direction and the skin surface. […]

SMILES strings stand for the structures.

Turning to `CC(C)Cc1ccc(C(C)C(=O)O)cc1` (stereo not drawn) [ibuprofen], for the setting “6 hr”, the “UT60°/Non-UTGel 1 (permeation enhancement factor)” value is “approximately 2.9 fold”, the “UT15°/Non-UTGel 1 (permeation enhancement factor)” value was “approximately 3.0 fold” and the “UT90°/Non-UTGel 1 (permeation enhancement factor)” value is “approximately 2.3 fold”. For the same compound, where the note is “24 hr”, the “UT60°/Non-UTGel 1 (permeation enhancement factor)” value was ~2.0 fold, the “UT15°/Non-UTGel 1 (permeation enhancement factor)” value is “approximately 3.0 fold” and the “UT90°/Non-UTGel 1 (permeation enhancement factor)” value is ~2.0 fold.

These data come from patent US20170080198A1, “DEVICES AND METHODS FOR ENHANCING THE TOPICAL APPLICATION OF A BENEFIT AGENT” (Johnson & Johnson Consummer Inc., priority 2015, published 2017).
